One may read the pIC50 as the negative decadic logarithm of the IC50, by convention in mol/L. Higher therefore signals a low IC50.

Type in all cases: biochemical
One experiment deals with PAK1 (Homo sapiens, UniProt Q13153). Put plainly: In vitro PAK inhibition assay (SelectScreen, Ser/Thr 19 peptide). A digest of the protocol:
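Kinase reaction ran in 50 mM HEPES pH 7.5, 0.01% BRIJ-35, 10 mM MgCl2, 1 mM EGTA with Ser/Thr 19 peptide for 60 min at room temperature, followed by 60 min protease development. Fluorescence gave percent phosphorylation. Compounds were tested as 10-point, 3-fold titrations in 1% DMSO final.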

The target of a further experiment is PAK2 (PAK65) (Homo sapiens, UniProt Q13177). Put plainly: In vitro PAK inhibition assay (SelectScreen, Ser/Thr 20 peptide). A digest of the protocol: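 FRET-based peptide cleavage assay: 0.29-6 ng PAK2 and 2 μM Ser/Thr 20 peptide in 50 mM HEPES pH 7.5, 10 mM MgCl2, 1 mM EGTA, 0.01% BRIJ-35, 1% DMSO final. Kinase reaction 60 min at room temperature, then 60 min development; 10-point 3-fold titrations, percent phosphorylation from fluorescence.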
Chain of PAK2 (PAK65) (Q13177 whole entry): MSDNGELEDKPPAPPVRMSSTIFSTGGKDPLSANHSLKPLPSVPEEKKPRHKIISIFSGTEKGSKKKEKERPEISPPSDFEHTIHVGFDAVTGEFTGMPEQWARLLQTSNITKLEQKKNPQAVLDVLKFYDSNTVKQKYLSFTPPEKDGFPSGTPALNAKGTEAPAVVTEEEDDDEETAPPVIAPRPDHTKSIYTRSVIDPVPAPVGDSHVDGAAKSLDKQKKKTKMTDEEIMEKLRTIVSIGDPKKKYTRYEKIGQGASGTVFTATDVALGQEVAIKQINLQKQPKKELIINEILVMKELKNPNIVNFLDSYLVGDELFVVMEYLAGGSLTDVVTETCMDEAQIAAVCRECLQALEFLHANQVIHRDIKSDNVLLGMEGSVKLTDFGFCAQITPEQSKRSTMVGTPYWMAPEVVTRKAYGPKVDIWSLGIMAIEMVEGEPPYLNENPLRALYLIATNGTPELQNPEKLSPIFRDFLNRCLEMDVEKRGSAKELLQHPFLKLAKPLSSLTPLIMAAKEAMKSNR

The next experiment has as its target PAK3 (Homo sapiens, UniProt O75914). The experiment is described as above. In short, it runs like this:
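PAK3 phosphorylation of Ser/Thr 20 peptide in 50 mM HEPES pH 7.5, 0.01% BRIJ-35, 10 mM MgCl2, 1 mM EGTA, 1% DMSO final; 60 min at room temperature, then 60 min development reaction with fluorescence read-out. 10-point 3-fold titrations; percent phosphorylation from 0% and 100% phosphopeptide controls.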

The target in a further experiment is PAK4 (Homo sapiens, UniProt O96013). Described as above. A digest of the protocol:
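FRET-based Ser/Thr 20 peptide phosphorylation: 0.1-0.75 ng PAK4, 2 μM peptide in 50 mM HEPES pH 7.5, 10 mM MgCl2, 1 mM EGTA, 0.01% BRIJ-35, 1% DMSO; 60 min at room temperature, then 60 min protease development. 10-point 3-fold titrations; IC50 from sigmoidal fit.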

pIC50: −log10 of the molar value.

Chain of PAK4 (O96013 whole entry): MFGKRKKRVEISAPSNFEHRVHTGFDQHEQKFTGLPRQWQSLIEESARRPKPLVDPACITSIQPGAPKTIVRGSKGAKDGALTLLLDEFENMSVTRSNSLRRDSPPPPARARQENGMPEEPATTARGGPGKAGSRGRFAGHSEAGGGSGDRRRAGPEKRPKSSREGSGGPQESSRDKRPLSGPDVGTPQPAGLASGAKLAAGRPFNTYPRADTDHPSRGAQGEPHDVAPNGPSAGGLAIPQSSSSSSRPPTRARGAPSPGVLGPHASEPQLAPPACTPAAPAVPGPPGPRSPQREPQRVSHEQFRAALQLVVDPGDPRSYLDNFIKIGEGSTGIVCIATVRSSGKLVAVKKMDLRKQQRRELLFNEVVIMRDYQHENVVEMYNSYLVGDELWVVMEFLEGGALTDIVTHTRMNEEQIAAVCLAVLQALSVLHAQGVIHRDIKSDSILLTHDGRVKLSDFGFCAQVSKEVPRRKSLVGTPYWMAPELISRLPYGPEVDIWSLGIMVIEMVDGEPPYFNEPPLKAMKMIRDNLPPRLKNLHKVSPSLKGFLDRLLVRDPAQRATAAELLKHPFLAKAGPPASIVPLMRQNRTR
Chain of PAK1 (Q13153 whole entry): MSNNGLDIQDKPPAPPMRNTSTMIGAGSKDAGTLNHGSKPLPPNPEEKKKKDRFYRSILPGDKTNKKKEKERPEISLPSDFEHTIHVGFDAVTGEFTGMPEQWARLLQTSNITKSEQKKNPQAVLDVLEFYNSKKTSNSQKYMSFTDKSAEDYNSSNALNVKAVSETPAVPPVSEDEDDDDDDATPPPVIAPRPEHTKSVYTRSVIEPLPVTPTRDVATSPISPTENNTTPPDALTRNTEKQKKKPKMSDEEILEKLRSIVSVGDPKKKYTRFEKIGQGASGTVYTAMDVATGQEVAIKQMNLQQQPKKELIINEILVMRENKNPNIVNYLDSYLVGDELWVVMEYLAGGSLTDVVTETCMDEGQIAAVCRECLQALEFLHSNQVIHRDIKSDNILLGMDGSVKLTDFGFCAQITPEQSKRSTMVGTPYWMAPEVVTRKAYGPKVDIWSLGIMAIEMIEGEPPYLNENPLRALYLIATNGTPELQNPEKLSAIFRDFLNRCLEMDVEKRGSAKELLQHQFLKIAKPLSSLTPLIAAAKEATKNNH
Chain of PAK3 (O75914 whole entry): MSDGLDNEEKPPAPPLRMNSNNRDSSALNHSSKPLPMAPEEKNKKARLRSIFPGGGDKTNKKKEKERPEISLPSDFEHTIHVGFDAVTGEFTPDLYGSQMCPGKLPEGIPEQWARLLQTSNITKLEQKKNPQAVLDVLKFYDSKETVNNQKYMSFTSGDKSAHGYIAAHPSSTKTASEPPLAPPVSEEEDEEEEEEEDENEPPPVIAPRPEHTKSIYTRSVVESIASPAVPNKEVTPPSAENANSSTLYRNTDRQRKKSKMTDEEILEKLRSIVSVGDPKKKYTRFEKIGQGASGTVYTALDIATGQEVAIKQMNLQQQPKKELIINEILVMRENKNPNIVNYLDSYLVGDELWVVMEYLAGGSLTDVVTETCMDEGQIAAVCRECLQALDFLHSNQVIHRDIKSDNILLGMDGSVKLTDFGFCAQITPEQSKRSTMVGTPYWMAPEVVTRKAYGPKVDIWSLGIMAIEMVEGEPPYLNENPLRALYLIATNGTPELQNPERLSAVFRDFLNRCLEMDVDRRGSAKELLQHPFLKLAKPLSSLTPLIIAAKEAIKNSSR

Turning to `CCOC(=O)c1nc(-c2ccc(-c3cc4cnc(Nc5ccc(N6CCN(C)CC6)cc5)nc4n(CC)c3=O)c(Cl)c2)no1`, the pIC50 at PAK1 is greater than 7.30; against PAK2 (PAK65), 6.30 to 7.30; against PAK3, 6.30 to 7.30; against PAK4 it was no more than 5.30.
In the case of `CCn1c(=O)c(-c2ccc(-c3cccnc3C)cc2Cl)cc2cnc(Nc3ccc(CCN(C)C)cc3)nc21`, the negative-log IC50 (pIC50) against PAK1 is greater than 7.30; against PAK2 (PAK65) it was greater than 7.30; on PAK3, 6.30 to 7.30; against PAK4 it was no more than 5.30.
As to `CCn1c(=O)c(-c2ccc(-c3ccnc(C(=O)NC)c3)cc2Cl)cc2cnc(Nc3ccc(C4CCNCC4)cc3)nc21`, the pIC50 against PAK1 is 6.30 to 7.30; against PAK2 (PAK65) it was 6.30 to 7.30; against PAK3 it was 6.30 to 7.30; at PAK4, no more than 5.30.
For `CCn1c(=O)c(-c2ccc(-c3noc(C)n3)cc2Cl)cc2cnc(Nc3ccc(C4CCN5CCCC5C4)cc3)nc21` (stereo not shown), the pIC50 on PAK1 was greater than 7.30; against PAK2 (PAK65), greater than 7.30; at PAK3, greater than 7.30; at PAK4 it was no more than 5.30.
For the compound `CCn1c(=O)c(-c2ccc(-c3cncnc3)cc2Cl)cc2cnc(Nc3ccc(N4CCNCC4)cc3)nc21`, the negative logarithm of the IC50 (pIC50) at PAK1 is greater than 7.30; against PAK2 (PAK65), greater than 7.30; against PAK3, greater than 7.30; against PAK4, 5.30 to 6.30.
As for `CC(=O)Nc1ccnc(-c2ccc(Cl)c(-c3cc4cnc(Nc5ccc(C6CCN(C)CC6)cc5)nc4n(C)c3=O)c2)n1`, the negative-log IC50 (pIC50) at PAK1 is less than 5.30; at PAK2 (PAK65), less than 5.30; on PAK3, less than 5.30; on PAK4, no more than 5.30.
On to `CCN1CCC(c2ccc(Nc3ncc4cc(-c5ccc(-c6cnc(C)s6)cc5Cl)c(=O)n(CC)c4n3)cc2F)CC1`, for which the pIC50 was greater than 7.30 at PAK1, greater than 7.30 against PAK2 (PAK65), greater than 7.30 on PAK3 and 5.30 to 6.30 against PAK4.
Regarding `CCN1CCC(c2ccc(Nc3ncc4cc(-c5ccc(-c6noc(C)n6)cc5Cl)c(=O)n(C)c4n3)cc2)CC1`, the negative-log IC50 (pIC50) against PAK1 is greater than 7.30; against PAK2 (PAK65), greater than 7.30; at PAK3 it was greater than 7.30; on PAK4 it was no more than 5.30.
For the compound `Cc1ccc(-c2cccnc2)cc1-c1cc2cnc(Nc3ccc(C4CCN(C)CC4)cc3)nc2n(C)c1=O`, the negative-log IC50 (pIC50) at PAK1 was 6.30 to 7.30; on PAK2 (PAK65) it was 5.30 to 6.30; at PAK3 it was 6.30 to 7.30; at PAK4, no more than 5.30.
Turning to `CCn1c(=O)c(-c2ccc(-c3cccs3)cc2Cl)cc2cnc(Nc3ccc(N4CCN(C)CC4)cc3)nc21`, the negative logarithm of the IC50 (pIC50) is greater than 7.30 at PAK1, greater than 7.30 on PAK2 (PAK65), 6.30 to 7.30 against PAK3 and no more than 5.30 on PAK4.
With `CCn1c(=O)c(-c2ccc(-c3noc(C)n3)cc2Cl)cc2cnc(Nc3ccc(N4CCN(C(C)C)CC4)cc3)nc21`, the negative-log IC50 (pIC50) against PAK1 was greater than 7.30; on PAK2 (PAK65) it was greater than 7.30; against PAK3 it was greater than 7.30; on PAK4, 5.30 to 6.30.
`CCn1c(=O)c(-c2ccc(C3CC3)cc2C2CC2)cc2cnc(Nc3ccc(N4CCN(C)CC4)cc3)nc21`: the pIC50 against PAK1 was 5.30 to 6.30; against PAK2 (PAK65) it was 5.30 to 6.30; on PAK3, 5.30 to 6.30; against PAK4, no more than 5.30.
With `CCn1c(=O)c(-c2ccc(-c3noc(C)n3)cc2F)cc2cnc(Nc3ccc(C4CCN(C)CC4)cc3)nc21`, the pIC50 against PAK1 was greater than 7.30; against PAK2 (PAK65), greater than 7.30; against PAK3 it was 6.30 to 7.30; at PAK4, no more than 5.30.
Regarding `CCn1c(=O)c(-c2ccc(-c3ccc(C)nc3F)cc2Cl)cc2cnc(Nc3ccc(C4CCN(C(C)C)CC4)cc3)nc21`, the pIC50 was 6.30 to 7.30 against PAK1, greater than 7.30 on PAK2 (PAK65), 6.30 to 7.30 on PAK3 and 5.30 to 6.30 at PAK4.
Take `Cc1nccnc1-c1ccc(-c2cc3cnc(Nc4ccc(C5CCN(C)CC5)cc4)nc3n(C)c2=O)c(Cl)c1`: the pIC50 against PAK1 was greater than 7.30; against PAK2 (PAK65) it was greater than 7.30; against PAK3, greater than 7.30; on PAK4, no more than 5.30.
With `CCn1c(=O)c(-c2ccc(-c3ccnc(C(F)(F)F)n3)cc2Cl)cc2cnc(Nc3ccc(C4CCN(C)CC4)cc3)nc21`, the negative logarithm of the IC50 (pIC50) against PAK1 was greater than 7.30; at PAK2 (PAK65), greater than 7.30; against PAK3, 6.30 to 7.30; on PAK4 it was no more than 5.30.
Turning to `CCn1c(=O)c(-c2ccc(-c3ccc(C)nc3)cc2Cl)cc2cnc(Nc3ccc(C4CCNCC4)cc3)nc21`, the pIC50 at PAK1 was greater than 7.30; against PAK2 (PAK65), greater than 7.30; against PAK3 it was 6.30 to 7.30; on PAK4 it was 5.30 to 6.30.
Regarding `CCN1CCC(c2ccc(Nc3ncc4cc(-c5ccc(-c6cccnc6)cc5Cl)c(=O)n(CC)c4n3)cc2F)CC1`, the pIC50 against PAK1 was greater than 7.30; on PAK2 (PAK65) it was greater than 7.30; against PAK3, greater than 7.30; on PAK4 it was 5.30 to 6.30.
Consider `CC(=O)N(C)c1ncccc1-c1ccc(Cl)c(-c2cc3cnc(Nc4ccc(C5CCN(C)CC5)cc4)nc3n(C)c2=O)c1`, for which the pIC50 is less than 5.30 at PAK1, less than 5.30 on PAK2 (PAK65), 5.30 to 6.30 at PAK3 and no more than 5.30 on PAK4.
Turning to `CCN1CCC(c2ccc(Nc3ncc4cc(-c5ccc(-c6cccnc6C)cc5Cl)c(=O)n(CC)c4n3)cc2F)CC1`, the negative logarithm of the IC50 (pIC50) against PAK1 was greater than 7.30; at PAK2 (PAK65) it was 6.30 to 7.30; on PAK3 it was 6.30 to 7.30; on PAK4 it was no more than 5.30.
For `CCn1c(=O)c(-c2ccc(-c3cccc4[nH]ccc34)cc2Cl)cc2cnc(Nc3ccc(N4CCN(C)CC4)cc3)nc21`, the pIC50 against PAK1 is greater than 7.30; against PAK2 (PAK65), 6.30 to 7.30; against PAK3, 6.30 to 7.30; at PAK4, no more than 5.30.
`CCn1c(=O)c(-c2ccc(-c3ccc(C)nc3)cc2Cl)cc2cnc(Nc3ccc(C4CCN5CCCC5C4)cc3)nc21` (stereo not shown): the negative logarithm of the IC50 (pIC50) at PAK1 is greater than 7.30; at PAK2 (PAK65), greater than 7.30; against PAK3 it was 6.30 to 7.30; at PAK4, 5.30 to 6.30.
As for `CCn1c(=O)c(-c2ccc(-c3ccc(NC(C)=O)nc3)cc2Cl)cc2cnc(Nc3ccc(N4CCN(C)CC4)cc3)nc21`, the negative logarithm of the IC50 (pIC50) on PAK1 was less than 5.30; against PAK2 (PAK65) it was 5.30 to 6.30; at PAK3 it was 5.30 to 6.30; against PAK4 it was no more than 5.30.
Consider `CN1CCC(c2ccc(Nc3ncc4cc(-c5cc(-c6cccnc6N(C)C)ccc5Cl)c(=O)n(C)c4n3)cc2)CC1`, for which the pIC50 against PAK1 is 5.30 to 6.30; at PAK2 (PAK65) it was 5.30 to 6.30; against PAK3, less than 5.30; at PAK4, no more than 5.30.
For the compound `CNC(=O)c1cc(-c2ccc(-c3cc4cnc(Nc5ccc(CCN(C)C)cc5)nc4n(C)c3=O)c(Cl)c2)ccn1`, the pIC50 was 6.30 to 7.30 against PAK1, 6.30 to 7.30 on PAK2 (PAK65), 5.30 to 6.30 against PAK3 and no more than 5.30 against PAK4.
Take `CCn1c(=O)c(-c2ccc(-c3noc(C)n3)cc2C)cc2cnc(Nc3ccc(C4CCN(C)CC4)cc3)nc21`: the negative logarithm of the IC50 (pIC50) was greater than 7.30 against PAK1, greater than 7.30 at PAK2 (PAK65), greater than 7.30 at PAK3 and 5.30 to 6.30 against PAK4.
In the case of `CCn1c(=O)c(-c2ccc(-c3cccs3)cc2)cc2cnc(Nc3ccc(N4CCN(C)CC4)cc3)nc21`, the pIC50 against PAK1 was 6.30 to 7.30; on PAK2 (PAK65) it was 5.30 to 6.30; against PAK3, less than 5.30; against PAK4, no more than 5.30.
The corresponding values for `CCn1c(=O)c(-c2ccc(-c3cccnc3C)cc2Cl)cc2cnc(Nc3ccc(C4CCN5CCCC5C4)cc3)nc21` (stereo not shown) are greater than 7.30, 6.30 to 7.30, 6.30 to 7.30 and no more than 5.30.

Source of the values: patent publication US20140163026A1, “8-ETHYL-6-(ARYL)PYRIDO[2,3-D]PYRIMIDIN-7(8H)-ONES FOR THE TREATMENT OF NERVOUS SYSTEM DISORDERS AND CANCER” (Afraxis Holdings, Inc., priority 2011, published 2014).
